Measurements: paper PMC12767876, “Synthesis and evaluation of enantiomeric quinoline-2-carboxamides: positron emission tomography imaging agents for the translocator protein” (RSC Medicinal Chemistry, 2025)
Where two headings read alike, the source gives them in different places.

Columns and labels:
TSPO [1] = biological target: T1, TSPO (Homo sapiens, UniProt P30536); assay: [3H]PK11195 competition binding assay on homogenised human brain tissue (frontal cortex) from rs6971 genotyped HAB, MAB and LAB donors; conditions: for influence of rs6971 polymorphism on binding: HAB vs. LAB, unpaired t-test, p = 0.5273, n = 6 per genotype
T1 sequence (P30536 2-169): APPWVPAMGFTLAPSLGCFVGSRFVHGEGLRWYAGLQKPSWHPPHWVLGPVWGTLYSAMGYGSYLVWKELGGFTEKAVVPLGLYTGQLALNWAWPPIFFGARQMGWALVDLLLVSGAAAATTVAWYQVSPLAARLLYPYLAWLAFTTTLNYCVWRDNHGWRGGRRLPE
Experimental: All studies using human tissue were conducted and approved in accordance with the National Health Service Research Ethics Committee Southeast Scotland (NHS-RECSE, Edinburgh Brain and Tissue Bank, 16/ES/0084). Informed consents were obtained from human participants of this study. The Edinburgh Brain and Tissue code and BNN reference numbers for all new tissue samples used in this study are: SD022/13 (BBN_15222), SD038/13 (BBN_18391), SD037/14 (BBN_23395), SD051/14 (BBN_24340), SD012/15 (BBN_25055), SD032/16 (0.01.29084), SD027/12 (BBN_13410), SD038/12 (BBN_4176), SD006/14 (BBN_20593), SD008/14 (BBN_20592), SD020/14 (BBN_22611), SD011/15 (BBN_24781), SD023/12 (BBN_3785), SD029/13 (BBN_15809), SD036/13 (BBN_18392), SD046/13 (BBN_18407), SD034/14 (BBN_22628) and SD031/15 (001.26124). […] Binding was terminated with the addition of ice cold buffer before being immediately filtered over Whatman GF/B filter paper (Whatman, UK) pre-treated with 0.3% polyethylenimine (Sigma-Aldrich, USA) using a Brandel harvester (Brandel, USA). Filter paper was then removed, placed into Optiphase HiSafe 3 (2.5 mL) (Perkin Elmer, USA) and counted 48 h later on a Hidex 300 SL (Hidex, Finland). […] All binding assays were performed in triplicate. GraphPad Prism version 9 (GraphPad Software, USA) was used to fit all binding affinity curves. Curves were fitted using a one-site binding model.

TSPO [2] = biological target: T1, TSPO; set-up: method as in PMID 32859708; conditions: human brain (and heart) tissues, cited from earlier work
[3] = HPLC determination of membrane permeability (Pm) and membrane partition coefficient (Km) using immobilised artificial membrane (IAM) column; assay type: physicochemical
Text: (§1) The selection of potential candidates as neurological imaging agents requires evaluation of key physicochemical properties. […] For agents that rely primarily on passive diffusion, the membrane partition coefficient is particularly critical. […] Taken together, these physicochemical properties and in vivo studies support the potential of LW223 as a neurological imaging agent. Although the R-enantiomer of LW223 was used to determine the physicochemical properties in this study, these values are expected to be representative of the S-enantiomer, which is consistent with observations for other enantiomeric pairs.[32] [table]

[4] = set-up: method as in PMID 32859708, PMID 37795635; conditions: murine brain; cited from earlier work
[5] = HPLC determination of partition coefficient (log P) using C18 column; assay type: physicochemical
Text: as §1

human serum albumin = human serum albumin (Homo sapiens, UniProt P02768); assay: HPLC determination of plasma protein binding using human serum albumin coated column; assay type: in vitro ADME; conditions: read-out: % PPB (plasma protein binding) (converted)
Chain of human serum albumin (P02768 25-609): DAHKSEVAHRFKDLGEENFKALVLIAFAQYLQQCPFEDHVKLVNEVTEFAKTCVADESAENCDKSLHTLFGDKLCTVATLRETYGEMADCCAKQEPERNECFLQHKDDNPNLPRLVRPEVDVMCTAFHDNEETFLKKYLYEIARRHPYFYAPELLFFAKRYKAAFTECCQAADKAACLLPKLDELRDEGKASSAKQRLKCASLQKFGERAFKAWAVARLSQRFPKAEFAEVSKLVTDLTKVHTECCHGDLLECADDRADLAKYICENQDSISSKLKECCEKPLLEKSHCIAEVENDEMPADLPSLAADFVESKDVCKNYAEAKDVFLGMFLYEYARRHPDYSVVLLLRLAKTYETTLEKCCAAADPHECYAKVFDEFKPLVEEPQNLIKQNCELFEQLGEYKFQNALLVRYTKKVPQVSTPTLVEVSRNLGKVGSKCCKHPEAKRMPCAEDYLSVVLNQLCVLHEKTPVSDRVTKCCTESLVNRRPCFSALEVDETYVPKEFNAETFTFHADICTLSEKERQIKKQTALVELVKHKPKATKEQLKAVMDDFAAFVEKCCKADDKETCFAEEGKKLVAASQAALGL
Text: as §1

SMILES | influence of rs6971 polymorphism on binding (TSPO [1]) | influence of rs6971 polymorphism on binding (TSPO [1]; listed as S-enantiomer) | fold lower affinity for TSPO compared to (R)-LW223 (TSPO [1]; human brain homogenate) [fold] | fold lower affinity for TSPO relative to PK11195 (TSPO [1]; human brain homogenate) [fold] | Ki (TSPO [1]; human brain homogenate, all genotypes (HAB, MAB, LAB), n = 18, 1 nM [3H]PK11195, 1.5 h at 4 °C, Kd […], mean ± SD, read-out: TSPO affinity (Ki)) [nM] | influence of rs6971 polymorphism on binding (TSPO [2]) | influence of rs6971 polymorphism on binding (TSPO [2]; listed as (R)-LW223) | K m (membrane partition coefficient) [3] | blood–brain barrier crossing and non-specific binding [4] | chromatographic logP [5] | fraction unbound (human serum albumin)
CC[C@H](C)N(C)C(=O)c1nc2ccccc2c(-c2ccccc2)c1CF [(S)-LW223, (S)-(N-sec-Butyl)-3-(fluoromethyl)-N-methyl-4-phenylquinoline-2-carboxamide] | not significantly influenced by the rs6971 polymorphism | insensitive to the rs6971 polymorphism | 7.5 | 3.75 | 4.5 ± 0.7 |  |  |  |  |  | 
CC[C@@H](C)N(C)C(=O)c1nc2ccccc2c(-c2ccccc2)c1CF [LW223, (R)-N-(sec-Butyl)-3-(fluoromethyl)-N-methyl-4-phenylquinoline-2-carboxamide] |  |  |  |  |  | unaffected by rs6971 | not significantly influenced by the rs6971 polymorphism | 195 | effectively crosses the BBB and exhibits low non-specific binding | 4.13 | 0.08
CCC(C)N(C)C(=O)c1cc2ccccc2c(-c2ccccc2Cl)n1 (centres unmarked) [PK11195, reference compound] |  |  |  |  |  |  |  | 184 |  | 3.98 | 0.08
